As usually defined, the Ki is a dissociation constant, usually derived from enzyme kinetics or from competition with a known ligand. Higher therefore signals weaker binding.

The values below come from PMC3367201 (Nucleic Acids Research, 2012).

The target in the assay is Hp ND-AspRS (non-discriminating aspartyl-tRNA synthetase) (Helicobacter pylori, UniProt P56459). In words: inhibition of tRNA aminoacylation with […] L-Asp. The assay is classed as biochemical.
Chain of Hp ND-AspRS (non-discriminating aspartyl-tRNA synthetase) (P56459 whole entry): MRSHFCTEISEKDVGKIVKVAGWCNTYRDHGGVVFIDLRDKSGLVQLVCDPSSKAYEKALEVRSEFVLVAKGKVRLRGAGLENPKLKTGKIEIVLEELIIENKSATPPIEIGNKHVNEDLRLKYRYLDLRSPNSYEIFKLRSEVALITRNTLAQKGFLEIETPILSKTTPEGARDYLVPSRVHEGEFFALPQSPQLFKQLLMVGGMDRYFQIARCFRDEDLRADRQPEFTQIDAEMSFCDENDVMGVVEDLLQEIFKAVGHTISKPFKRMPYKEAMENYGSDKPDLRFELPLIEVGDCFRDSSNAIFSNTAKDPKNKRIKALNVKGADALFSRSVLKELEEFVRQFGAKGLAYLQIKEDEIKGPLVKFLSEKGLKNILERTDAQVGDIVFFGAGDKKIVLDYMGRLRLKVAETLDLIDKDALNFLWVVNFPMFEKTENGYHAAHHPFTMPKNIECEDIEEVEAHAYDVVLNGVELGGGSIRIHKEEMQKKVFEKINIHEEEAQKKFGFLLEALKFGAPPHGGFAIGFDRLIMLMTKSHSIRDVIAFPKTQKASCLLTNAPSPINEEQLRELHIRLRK

In the case of `Nc1ncnc2c1ncn2[C@@H]1O[C@H](COP(=O)(O)OC[C@@H](N)CC(=O)O)[C@@H](O)[C@H]1O` [Asp-ol-AMP], the affinity, expressed as Ki, was 8 µM.
